The text below walks through data of patent US9181253B2 (The United States of America, as represented by the …, priority 2008, dated 2015).

In one assay the target is human A1 receptors (Homo sapiens (Human), UniProt P30542). In words: Binding assay at human A1 receptors (Example 2). The conditions noted are these: CHO cells expressing human A1AR; radioligand [3H]CCPA or [3H]R-PIA; n = 3-5; read-out: Affinity (Ki, nM) A1.
In another assay the target is human A2A receptors (Homo sapiens (Human), UniProt P29274). Briefly: Binding assay at human A2A receptors (Example 2). The conditions noted are these: HEK cells expressing human A2AAR; radioligand [3H]CGS21680; n = 3-5; read-out: Affinity (Ki, nM) A2A.
A further assay concerns the target human A3AR (Homo sapiens (Human), UniProt P0DMS8). In words: [35S]GTPγS binding assay, membranes of CHO cells expressing human A3AR. It counts as biochemical. The note with it: stimulation measured by [35S]GTPγS binding assay. Background: GTPγS is a poorly hydrolysed GTP analogue; its binding reports G protein activation.
Assay [1] concerns the target T1, hA1AR (Homo sapiens (Human), UniProt P30542). Briefly: Radioligand membrane binding at hA1AR (Example 6). The note with it: CHO cells expressing hA1AR; [3H]R-PIA; n = 3-5; read-out: Affinity Ki, nM A1. The method, then:
(§1) In addition, 800 μg/mL Geneticin and 500 μg/mL hygromycin were added to the A2A media and to the A1 and A3 media, respectively. […] The concentration of protein was determined using a BCA Protein Assay Kit from Pierce Biotechnology (Rockford, Ill.).
(§2) Radioligand binding assays at A1, A2A, and A3ARs were performed according to the procedures described previously.
(§3) All of the filters were washed 3 times with Tris-HCl, pH 7.5. […] Filters for A3AR binding were counted using a PerkinElmer Cobra II γ-counter.
(§4) Binding and functional parameters were calculated using Prism 5.0 software (GraphPAD, San Diego, Calif., USA). IC50 values obtained from competition curves were converted to Ki values using the Cheng-Prusoff equation. Data were expressed as mean±standard error.

In the next assay the target is hA2AAR (Homo sapiens (Human), UniProt P29274). Briefly: Radioligand membrane binding at hA2AAR (Example 6). The conditions noted are these: HEK293 cells expressing hA2AAR; [3H]CGS21680; n = 3-5; read-out: Affinity Ki, nM A2A. The method, then:
as §1, §2, §3, §4

The next assay concerns the target hA3AR (Homo sapiens (Human), UniProt P0DMS8). Briefly: Radioligand membrane binding at hA3AR (Example 6). The note with it: CHO cells expressing hA3AR; [125I]I-AB-MECA; n = 3-5; read-out: Affinity Ki, nM A3.
Assay [2] deals with T1, hA1AR. In words: A1AR functional assay, inhibition of forskolin-stimulated cyclic AMP production in AR-transfected CHO cells. It is filed as cell-based. The conditions noted are these: for % Inhibition, cyclic AMP A1: maximal efficacy at 10 μM, in comparison to effect (100%) of full agonist CPA at 10 μM, n = 3-5; for inhibition at 10 µM: CHO, read-out: % Inhibition, cyclic AMP A1.
Procedure: CHO cells that expressed the recombinant human or rat A3AR or the human A1 or A2BAR were harvested by trypsinization. After centrifugation and resuspended in medium, cells were planted in 24-well plates in 1.0 mL medium. […] The reaction was terminated by removing the supernatant, and cells were lysed upon the addition of 200 μL of 0.1 M ice-cold HCl. The cell lysate was resuspended and stored at −20° C. For determination of cyclic AMP production, protein kinase A (PKA) was incubated with [^3H]cyclic AMP (2 nM) in K2HPO4/EDTA buffer (K2HPO4, 150 mM; EDTA, 10 mM), 20 μL of the cell lysate, and 30 μL 0.1 M HCl or 50 μL of cyclic AMP solution (0-16 pmol/200 μL for standard curve). Bound radioactivity was separated by rapid filtration through Whatman GF/C filters and washed once with cold buffer. Bound radioactivity was measured by liquid scintillation spectrometry.
Intracellular cAMP levels were measured with a competitive protein binding method.

human A3AR, sequence (P0DMS8 whole entry): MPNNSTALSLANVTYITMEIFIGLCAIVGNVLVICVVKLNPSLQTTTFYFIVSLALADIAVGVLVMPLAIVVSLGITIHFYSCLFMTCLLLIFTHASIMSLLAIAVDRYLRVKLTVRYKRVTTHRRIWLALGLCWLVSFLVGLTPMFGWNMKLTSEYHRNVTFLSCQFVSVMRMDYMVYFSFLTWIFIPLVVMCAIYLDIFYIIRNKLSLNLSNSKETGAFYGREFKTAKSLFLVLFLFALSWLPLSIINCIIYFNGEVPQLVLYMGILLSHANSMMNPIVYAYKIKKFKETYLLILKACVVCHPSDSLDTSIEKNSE
hA3AR, sequence (P0DMS8 whole entry): as above
T1 sequence (P30542 whole entry): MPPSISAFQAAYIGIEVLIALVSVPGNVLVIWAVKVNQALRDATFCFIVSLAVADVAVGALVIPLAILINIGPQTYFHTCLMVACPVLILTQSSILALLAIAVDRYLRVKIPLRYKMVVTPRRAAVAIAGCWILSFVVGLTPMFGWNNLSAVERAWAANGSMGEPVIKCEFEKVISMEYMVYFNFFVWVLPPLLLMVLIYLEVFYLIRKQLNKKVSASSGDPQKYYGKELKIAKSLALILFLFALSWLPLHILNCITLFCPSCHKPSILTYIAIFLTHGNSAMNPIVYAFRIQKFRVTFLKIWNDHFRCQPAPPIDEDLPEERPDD
human A1 receptors, sequence (P30542 whole entry): as above
human A2A receptors, sequence (P29274 whole entry): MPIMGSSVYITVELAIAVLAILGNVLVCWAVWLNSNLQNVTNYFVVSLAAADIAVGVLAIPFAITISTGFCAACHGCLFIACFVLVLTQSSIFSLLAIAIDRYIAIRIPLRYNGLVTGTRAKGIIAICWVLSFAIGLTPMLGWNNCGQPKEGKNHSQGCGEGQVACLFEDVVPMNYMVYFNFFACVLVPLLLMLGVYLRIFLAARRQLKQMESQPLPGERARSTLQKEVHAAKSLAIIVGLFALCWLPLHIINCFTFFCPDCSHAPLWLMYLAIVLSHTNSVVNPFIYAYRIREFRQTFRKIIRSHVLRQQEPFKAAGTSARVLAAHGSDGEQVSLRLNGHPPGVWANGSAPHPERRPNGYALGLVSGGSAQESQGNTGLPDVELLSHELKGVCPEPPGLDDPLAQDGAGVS
hA2AAR, sequence (P29274 whole entry): as above
Procedure for hA3AR: Chinese hamster ovary (CHO) cells stably expressing either the recombinant hA1 or hA3AR and human embryonic kidney (HEK) 293 cells stably expressing the human (h) A2AAR were cultured in DMEM and F12 (1:1), supplemented with 10% fetal bovine serum, 100 units/mL penicillin, 100 μg/mL streptomycin, and 2 μmol/mL glutamine. In addition, 800 μg/mL Geneticin and 500 μg/mL hygromycin were added to the A2A media and to the A1 and A3 media, respectively. […] The concentration of protein was determined using a BCA Protein Assay Kit from Pierce Biotechnology (Rockford, Ill.).
The mixtures were incubated at 25° C. for 60 min. Binding reactions were terminated by filtration through Whatman GF/B filters under a reduced pressure using a MT-24 cell harvester (Brandell, Gaithersburg, Md.). Filters were washed three times with 5 ml of 50 mM ice-cold Tris-HCl buffer (pH 7.5). […] All of the filters were washed 3 times with Tris-HCl, pH 7.5. […] Filters for A3AR binding were counted using a PerkinElmer Cobra II γ-counter.
Source text for human A1 receptors: (§5) The reaction was terminated by filtration with GF/B filters.
Source text for human A2A receptors: as §5
Procedure for human A3AR: [^35S]GTPγS binding assay: [^35S]GTPγS binding was measured by a variation of the method described. […] Each assay tube consisted of 200 μL buffer containing 50 mM Tris HCl (pH 7.4), 1 mM EDTA, 1 mM MgCl2, 1 μM GDP, 1 mM dithiothreitol, 100 mM NaCl, 3 U/ml ADA, 0.2 nM [^35S]GTPγS, 0.004% 3-[(3-cholamidopropyl)dimethylammonio]propanesulfonate (CHAPS), and 0.5% bovine serum albumin. Incubations were started upon addition of the membrane suspension (CHO cells stably expressing either the native human A1AR or A3AR, 5 μg protein/tube) to the test tubes, and they were carried out in duplicate for 30 min at 25° C. The reaction was stopped by rapid filtration through Whatman GF/B filters, pre-soaked in 50 mM Tris HCl, 5 mM MgCl2 (pH 7.4) containing 0.02% CHAPS. The filters were washed twice with 3 mL of the same buffer, and retained radioactivity was measured using liquid scintillation counting. Non-specific binding of [^35S]GTPγS was measured in the presence of 10 μM unlabelled GTPγS.

Take `O[C@@H]1[C@H](O)[C@@H]2C[C@@H]2[C@H]1n1cnc2c(NCc3cccc(Br)c3)nc(Cl)nc21` [Compound 9b, (1′R,2′R,3′S,4′R,5′S)-4′-[2-Chloro-6-(3-bromobenzylamino)purine]-2′,3′-O-dihydroxybicyclo-[3.1.0]hexane]: the Ki (in general, a dissociation constant, usually derived from enzyme kinetics or from competition with a known ligand) at human A1 receptors amounted to 1760 ± 1010 nM.
On to `COc1ccc(O)c(CNc2nc(Cl)nc3c2ncn3[C@H]2[C@H](O)[C@H](O)[C@@H]3C[C@@H]32)c1` [Compound 12b, (1′R,2′R,3′S,4′R,5′S)-4′-[2-Chloro-6-(2-hydroxy-5-methoxybenzylamino)purine]-2′,3′-O-dihydroxybicyclo-[3.1.0]hexane], for which the values for the Ki on human A1 receptors and at human A2A receptors were 1110 ± 300 nM and 6870 ± 1440 nM, respectively. For the same compound, the “% Efficacy A3” value at human A3AR is recorded as 0.4 ± 1.3%.
As for “(1R,2R,3S,4R,5S)-4-(2-Chloro-6-(endo-norbornyl)-9H-purin-9-yl)bicyclo[3.1.0]hexane-2,3-diol [Compound 113]”, the Ki on hA1AR [1] is 82.6 ± 15.8 nM; at hA2AAR it was 2450 ± 90 nM; on hA3AR it was 315 ± 48 nM. Moreover, the “% Inhibition, cyclic AMP A1” value on hA1AR [2] amounted to 62.1 ± 18.5%.
For `CC[C@@H](Nc1nc(Cl)nc2c1ncn2[C@H]1[C@H](O)[C@H](O)[C@@H]2C[C@@H]21)C1CC1` [Compound 212, (1R,2R,3S,4R,5S)-4-(2-Chloro-6-((R)-1-cyclopropylpropylamino)-9H-purin-9-yl)bicyclo[3.1.0]hexane-2,3-diol], the Ki on hA1AR [1] was 68.1 ± 5 nM; on hA2AAR it was 3610 ± 500 nM; on hA3AR, 150 ± 2 nM. Also, the inhibition (usually the share of the control response that was lost under treatment) at 10 µM on hA1AR [2] was found to be 37.3 ± 4.3%.
On the same counts, the results for `O[C@@H]1[C@H](O)[C@@H]2C[C@@H]2[C@H]1n1cnc2c(NC3CC3)nc(Cl)nc21` [Compound 108, (1R,2R,3S,4R,5S)-4-(2-Chloro-6-(cyclopropylamino)-9H-purin-9-yl)bicyclo[3.1.0]hexane-2,3-diol] are 210 ± 30 nM, 3700 ± 340 nM, 12.1 ± 3.4 nM and 79 ± 18.8%.
On the same counts, the results for `O[C@@H]1[C@H](O)[C@@H]2C[C@@H]2[C@H]1n1cnc2c(NC3CCCCC3)nc(Cl)nc21` [Compound 110, (1R,2R,3S,4R,5S)-4-(2-Chloro-6-(cyclohexylamino)-9H-purin-9-yl)bicyclo[3.1.0]hexane-2,3-diol] are 140 ± 10 nM, 2720 ± 450 nM, 500 ± 120 nM and 38 ± 17.6%.
Consider `COc1ccc(OC)c(CNc2nc(Cl)nc3c2ncn3[C@H]2[C@H](O)[C@H](O)[C@@H]3C[C@@H]32)c1` [Compound 11b, (1′R,2′R,3′S,4′R,5′S)-4′-[2-Chloro-6-(2,5-dimethoxybenzylamino)purine]-2′,3′-O-dihydroxybicyclo-[3.1.0]hexane], for which the Ki on human A2A receptors came to 2620 ± 730 nM. In addition, the “% Efficacy A3” value on human A3AR is listed as 4.6 ± 3.8%.
For `O[C@@H]1[C@H](O)[C@@H]2C[C@@H]2[C@H]1n1cnc2c(N[C@@H]3C[C@H]3c3ccccc3)nc(Cl)nc21` (relative stereo) [Compound 13b, (1′R,2′R,3′S,4′R,5′S)-4′-[2-Chloro-6-(trans-2-phenylcyclopropylamino)purine]-2′,3′-O-dihydroxybicyclo-[3.1.0]hexane], the “% Efficacy A3” value on human A3AR worked out at 9.7 ± 4.1%.
Turning to `CC(C)[C@H](Nc1nc(Cl)nc2c1ncn2[C@H]1[C@H](O)[C@H](O)[C@@H]2C[C@@H]21)C1CC1` [Compound 215, (1R,2R,3S,4R,5S)-4-(2-Chloro-6-((S)-1-cyclopropyl-2-methyl-propylamino)-9H-purin-9-yl)bicyclo[3.1.0]hexane-2,3-diol], the Ki on hA1AR [1] is 150 ± 50 nM; at hA2AAR it was 3650 ± 370 nM; on hA3AR, 1720 ± 140 nM. Besides, at hA1AR [2], the inhibition at 10 µM was 20.8 ± 6.1%.
For the compound `O[C@@H]1[C@H](O)[C@@H]2C[C@@H]2[C@H]1n1cnc2c(N[C@@H](C3CCC3)C3CC3)nc(Cl)nc21` [Compound 216, (1R,2R,3S,4R,5S)-4-(2-Chloro-6-((R)-cyclopropylcyclobutylmethylamino)-9H-purin-9-yl)bicyclo[3.1.0]hexane-2,3-diol], the Ki at hA1AR [1] was 270 ± 60 nM; at hA2AAR it was 5470 ± 300 nM; on hA3AR, 2930 ± 480 nM. The “% Inhibition, cyclic AMP A1” value at hA1AR [2] stood at 33.4 ± 5.2%.
Take `CC(C)[C@@H](Nc1nc(Cl)nc2c1ncn2[C@H]1[C@H](O)[C@H](O)[C@@H]2C[C@@H]21)C1CC1` [Compound 214, (1R,2R,3S,4R,5S)-4-(2-Chloro-6-((R)-1-cyclopropyl-2-methyl-propylamino)-9H-purin-9-yl)bicyclo[3.1.0]hexane-2,3-diol]: the Ki turned out to be 76 ± 8 nM at hA1AR [1], 1570 ± 180 nM at hA2AAR and 780 ± 80 nM on hA3AR. Moreover, the inhibition at 10 µM on hA1AR [2] is 33.8 ± 2.3%.
Take `O[C@@H]1[C@H](O)[C@@H]2C[C@@H]2[C@H]1n1cnc2c(N[C@H](C3CCC3)C3CC3)nc(Cl)nc21` [Compound 217, (1R,2R,3S,4R,5S)-4-(2-Chloro-6-((S)-cyclopropylcyclobutylmethylamino)-9H-purin-9-yl)bicyclo[3.1.0]hexane-2,3-diol]: the values for the Ki on hA1AR [1], on hA2AAR and at hA3AR were 120 ± 40 nM, 6450 ± 720 nM and 2790 ± 720 nM, respectively. Further, the “% Inhibition, cyclic AMP A1” value at hA1AR [2] came out at 18.1 ± 6.8%.
Regarding `O[C@@H]1[C@H](O)[C@@H]2C[C@@H]2[C@H]1n1cnc2c(NCc3cccc(Cl)c3)nc(Cl)nc21` [Compound 8b, (1′R,2′R,3′S,4′R,5′S)-4′-[2-Chloro-6-(3-chlorobenzylamino)purine]-2′,3′-O-dihydroxybicyclo-[3.1.0]hexane], the inhibition constant (Ki) was 3070 ± 1500 nM at human A1 receptors and 4510 ± 910 nM at human A2A receptors. Besides, the “% Efficacy A3” value on human A3AR was 2.9 ± 3.7%.
As to `O[C@@H]1[C@H](O)[C@@H]2C[C@@H]2[C@H]1n1cnc2c(NC3CCCCCC3)nc(Cl)nc21` [Compound 111, (1R,2R,3S,4R,5S)-4-(2-Chloro-6-(cycloheptylamino)-9H-purin-9-yl)bicyclo[3.1.0]hexane-2,3-diol], the Ki on hA1AR [1] was 230 ± 30 nM; at hA2AAR, 3930 ± 520 nM; on hA3AR it was 560 ± 90 nM. For the same compound, at hA1AR [2], the inhibition at 10 µM worked out at 48.1 ± 10.2%.
On the same counts, the results for `CC[C@H](Nc1nc(Cl)nc2c1ncn2[C@H]1[C@H](O)[C@H](O)[C@@H]2C[C@@H]21)C1CC1` [Compound 213, (1R,2R,3S,4R,5S)-4-(2-Chloro-6-((S)-1-cyclopropylpropylamino)-9H-purin-9-yl)bicyclo[3.1.0]hexane-2,3-diol] are 150 ± 10 nM, 4910 ± 430 nM, 780 ± 70 nM and 57.9 ± 1.1%.
On the same counts, the results for `CCC(CC)Nc1nc(Cl)nc2c1ncn2[C@H]1[C@H](O)[C@H](O)[C@@H]2C[C@@H]21` [Compound 118, (1R,2R,3S,4R,5S)-4-(2-Chloro-6-(pentan-3-ylamino)-9H-purin-9-yl)bicyclo[3.1.0]hexane-2,3-diol] are 78.8 ± 15.6 nM, 3700 ± 300 nM, 52 ± 14 nM and 28.6 ± 3.8%.
